# Test results from patent US20210023223A1, “HYDROCARBON / LIPID - CAROTENOID COMPLEXES” (IP SCIENCE LIMITED, priority 2018, published 2021).
# Experiments:
# [1] = Hydrophobicity as oxygen gas solubility (micellar red-ox catalymetry); assay type: physicochemical
# From the text: It is known that gas molecules are more soluble in hydrophobic domains than in polar structures or liquids. For example, solubility of molecular oxygen could be 4 to 10 fold greater in intact lipid membrane than in a surrounding aqueous solution [1-5]. In other words one can use the measure of soluble gas in lipids, or other […], as a measure of its hydrophobicity. This approach seem logical, however to the best of our knowledge has never been published.
# Here we describe a new method to measure hydrophobicity of lipids as a function of concentration of soluble molecular oxygen within their matrix.
# There are a number of ways to measure molecular oxygen in solid, crystal and indeed lipid structures. Almost all of them are physical methods such as ESR [1] or polarography. However, we decided to use much simpler and faster micellar acceleration red-ox catalymetry. This test can measure O2 in a dozen parallel samples not only lipids in model systems but also in circulating lipoproteins from human blood.
# The physical expansion of the size of the oil droplets observed in the above experiments was estimated by independent measurements on changes in their hydrophobicity. […] With this approach it was possible to detect these changes when ratio lycopene to fatty acids reached 1 to 10,000 and then it was a dose dependent effect. This rise reached its plateau level at the ratio 1:4,000.
# [2] = tested on: moderately obese volunteers; experiment: Tissue oxygenation StO2 by NIRS, 20 mg lycopene study; assay type: in vivo, human
# Method: Study Design. The total number of volunteers recruited to take part in the study was 18 (9 male and 9 female subjects) Caucasians 40-67 years old.
# Products Formulated with Lycopene was developed and made by Lycotec Ltd. (Cambridge, United Kingdom). The daily dose was 1 capsule of 20 mg of lycopene, and it was taken with the main meal of the day. The period of administration was 1 month.
# Thenar eminence and forearm muscles of the patients were used as a tissue target for the assessment of oxygen saturation, StO2, or combined level of oxygenated haemoglobin and myoglobin. StO2 was assessed by continuous wavelength near-infrared spectroscopy, NIRS, with wide-gap second-derivative (In Spectra, Hutchinson Technology, MN, USA). The measurements were taken at different time points.
# The recording was initiated after 15 min of rest in a supine position before occlusion of the brachial artery. It was then continued during stagnant ischemia induced by rapidly inflating the cuff to 50 mm Hg above systolic BP. The ischemia lasted for 3 min, and the recording period lasted for another 5 min after that until StO2 was stabilized. The area under the hyperaemic curve, AUC, of the recorded signal for the settling time in the post-occlusion period was then calculated as described earlier in % O2/minute.
smiles,measurement,setting,value
CC(C)=CCC/C(C)=C/C=C/C(C)=C/C=C/C(C)=C/C=C/C=C(C)/C=C/C=C(C)/C=C/C=C(\C)CCC=C(C)C [Lycopene],Hydrophobicity in terms of gas solubility,"[1]; ratio of molecules of lycopene per molecules of fatty acids 1:3,000",248-287 10^−6 M O2 per mg of sunflower oil
same,Hydrophobicity in terms of gas solubility,"[1]; ratio of molecules of lycopene per molecules of fatty acids 1:4,000",275-321 10^−6 M O2 per mg of sunflower oil
same,Hydrophobicity in terms of gas solubility,"[1]; ratio of molecules of lycopene per molecules of fatty acids 1:5,000",197-198 10^−6 M O2 per mg of sunflower oil
same,Hydrophobicity in terms of gas solubility,"[1]; ratio of molecules of lycopene per molecules of fatty acids 1:10,000",180-182 10^−6 M O2 per mg of sunflower oil
same,Hydrophobicity in terms of gas solubility,"[1]; ratio of molecules of lycopene per molecules of fatty acids 1:20,000",143-155 10^−6 M O2 per mg of sunflower oil
same,StO2,[2]; after 20 mg lycopene daily for one month,80.4 ± 5.3^ AUC mm
same,StO2,"[2]; before, n = 18",64.1 ± 4.9^ AUC mm
